From the supplement of paper PMC6045584
± gives the standard deviation of the averaged measurements.

Columns and labels:
[1] = compound: CNC(=O)c1cc(Oc2ccc(NC(=O)Nc3ccc(Cl)c(C(F)(F)F)c3)cc2)ccn1 [SORAFENIB]; assay: surviving fraction relative to DMSO-only wells; higher = less growth inhibition; conditions: exposure time: 5 days
In short: (§1)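 Lines were retained only if, across three screens, replicate Pearson r was >0.7 and median Z' was >0.3. Viability was measured as CellTiter-Glo luminescence and reported as surviving fraction relative to the median of DMSO-only wells. Readings followed 10 minutes at room temperature, after log-phase tumour cells seeded at 250–500 per well in 384-well plates had been exposed, from 24 hours after seeding, continuously for five days to inhibitors at 0.5, 1, 5, 10, 50, 100, 500 and 1000 nM.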

[2] = compound: Cn1nnc2c(C(N)=O)ncn2c1=O [TEMOZOLOMIDE]; assay: as above; conditions: exposure time: 5 days
In short: as §1

| Test System | surviving fraction ([1]; 0.5 nM) | surviving fraction ([1]; 5 nM) | surviving fraction ([1]; 10 nM) | surviving fraction ([1]; 50 nM) | surviving fraction ([1]; 100 nM) | surviving fraction ([1]; 1000 nM) | surviving fraction ([2]; 0.5 nM) | surviving fraction ([2]; 1 nM) | surviving fraction ([2]; 5 nM) | surviving fraction ([2]; 10 nM) | surviving fraction ([2]; 50 nM) | surviving fraction ([2]; 100 nM) | surviving fraction ([2]; 500 nM) | surviving fraction ([2]; 1000 nM) | surviving fraction ([1]; 1 nM) | surviving fraction ([1]; 500 nM) |
| --- | --- | --- | --- | --- | --- | --- | --- | --- | --- | --- | --- | --- | --- | --- | --- | --- |
| MDAMB453 BREAST | 1.08 ± 0.064 | 1.11 ± 0.074 | 1.09 ± 0.011 | 1.12 ± 0.056 | 1.12 ± 0.091 | 1.04 ± 0.047 | 1.07 ± 0.015 | 1.097 ± 0.0087 | 1.13 ± 0.016 | 1.1 ± 0.076 | 1.14 ± 0.058 | 1.09 ± 0.11 | 1.07 ± 0.075 | 1.09 ± 0.056 | – | – |
| MDAMB436 BREAST | 0.966 ± 0.04 | 0.977 ± 0.057 | 0.949 ± 0.085 | – | 0.961 ± 0.043 | 0.855 ± 0.019 | 0.976 ± 0.14 | 1.03 ± 0.15 | 0.997 ± 0.13 | 1.09 ± 0.17 | 0.936 ± 0.1 | 1.04 ± 0.14 | 1.03 ± 0.11 | 0.959 ± 0.051 | 0.992 ± 0.046 | – |
| SIHA CERVIX | 1.04 ± 0.085 | 1.089 ± 0.01 | 1.13 ± 0.077 | – | 1.15 ± 0.043 | 1.17 ± 0.15 | 0.992 ± 0.024 | 0.996 ± 0.072 | 0.99 ± 0.06 | 1.06 ± 0.076 | 1.02 ± 0.021 | 1.06 ± 0.039 | 0.968 ± 0.044 | 1.02 ± 0.028 | 1.16 ± 0.11 | 1.17 ± 0.16 |
| OS25HAL BONE | 0.99 ± 0.023 | 1.03 ± 0.035 | – | 1.06 ± 0.018 | 1.01 ± 0.049 | 0.645 ± 0.056 | 1.02 ± 0.037 | 1.09 ± 0.031 | 1.06 ± 0.019 | 1.11 ± 0.023 | 1.02 ± 0.033 | 1.09 ± 0.03 | 1.07 ± 0.051 | 1.08 ± 0.041 | 0.984 ± 0.0092 | 0.855 ± 0.077 |
| BT20 BREAST | – | 1.07 ± 0.23 | 1.07 ± 0.23 | 1.01 ± 0.33 | 0.951 ± 0.3 | – | 1.05 ± 0.097 | 1.07 ± 0.15 | 1.04 ± 0.085 | 1.13 ± 0.11 | 1.01 ± 0.053 | 1.08 ± 0.081 | 1.03 ± 0.053 | 1.15 ± 0.052 | 1.04 ± 0.26 | – |
| HCT15 LARGE INTESTINE | 0.955 ± 0.029 | 0.99 ± 0.026 | 0.982 ± 0.021 | 1.09 ± 0.052 | 1.09 ± 0.064 | 1.06 ± 0.035 | 1.014 ± 0.0029 | 1.029 ± 0.0053 | 0.999 ± 0.055 | 1.02 ± 0.053 | 1.02 ± 0.045 | 1.08 ± 0.05 | 1.04 ± 0.063 | 1.09 ± 0.062 | 0.989 ± 0.0099 | – |
| A549 LUNG | 0.994 ± 0.032 | 1.01 ± 0.027 | – | – | 1.12 ± 0.043 | 1.04 ± 0.02 | 1.03 ± 0.0082 | 1.03 ± 0.04 | 1.03 ± 0.037 | 1.06 ± 0.013 | 1.03 ± 0.024 | 1.04 ± 0.032 | 1.04 ± 0.044 | 1.06 ± 0.047 | 0.949 ± 0.017 | 1.12 ± 0.055 |
| YAMATO SYNOVIAL | 1.26 ± 0.054 | 1.37 ± 0.096 | 1.26 ± 0.078 | 1.44 ± 0.096 | 1.35 ± 0.05 | 1.04 ± 0.056 | 1.14 ± 0.05 | 1.16 ± 0.055 | 1.27 ± 0.13 | 1.35 ± 0.076 | 1.22 ± 0.083 | 1.4 ± 0.1 | 1.31 ± 0.12 | 1.38 ± 0.095 | 1.24 ± 0.066 | 1.18 ± 0.088 |
| SCC003 HEADNECK | 0.898 ± 0.11 | – | – | 1.12 ± 0.18 | 1.11 ± 0.081 | – | 1.05 ± 0.077 | 1.04 ± 0.059 | 1.08 ± 0.072 | 1.15 ± 0.073 | 1.06 ± 0.034 | 1.1 ± 0.071 | 1.07 ± 0.057 | 1.09 ± 0.036 | 1.05 ± 0.12 | 1.24 ± 0.097 |
| VCAP PROSTATE | 1.13 ± 0.17 | 1.19 ± 0.12 | 1.08 ± 0.053 | 1.12 ± 0.21 | – | 1.02 ± 0.062 | 0.913 ± 0.1 | 1.09 ± 0.089 | 1.04 ± 0.13 | 1.04 ± 0.082 | 0.967 ± 0.051 | 1.1 ± 0.09 | 0.991 ± 0.039 | 1.08 ± 0.093 | 1.17 ± 0.11 | 1.13 ± 0.16 |
| HELA CERVIX | 1.03 ± 0.022 | 0.986 ± 0.047 | 0.9492 ± 0.0068 | 1.1 ± 0.024 | 1.09 ± 0.062 | – | 1.04 ± 0.058 | 1.08 ± 0.09 | 1.04 ± 0.019 | 1.12 ± 0.078 | 1.07 ± 0.02 | 1.16 ± 0.084 | 1.07 ± 0.031 | 1.16 ± 0.072 | 0.982 ± 0.024 | 1.07 ± 0.055 |
| C33A CERVIX | – | 1.08 ± 0.084 | 1.07 ± 0.075 | 1.18 ± 0.17 | 1.23 ± 0.17 | 1.19 ± 0.13 | 0.944 ± 0.13 | 0.901 ± 0.11 | 1.02 ± 0.056 | 0.929 ± 0.088 | 0.944 ± 0.047 | 1.05 ± 0.061 | 0.924 ± 0.012 | 0.984 ± 0.068 | 1.1 ± 0.17 | 1.21 ± 0.069 |
| HU09 BONE | 0.95 ± 0.061 | 1.01 ± 0.099 | 0.95 ± 0.072 | 0.809 ± 0.061 | 0.675 ± 0.063 | 0.433 ± 0.02 | 0.817 ± 0.057 | 1.01 ± 0.042 | 1.08 ± 0.11 | 1.1 ± 0.014 | 0.964 ± 0.14 | 1.12 ± 0.051 | 0.966 ± 0.11 | 0.961 ± 0.076 | 0.951 ± 0.089 | 0.512 ± 0.016 |
| SCC47 HEADNECK | 1.04 ± 0.067 | 1.08 ± 0.029 | 0.974 ± 0.067 | 1 ± 0.053 | 1.01 ± 0.068 | 0.825 ± 0.028 | 0.956 ± 0.035 | 1.06 ± 0.074 | 1.1 ± 0.035 | 1.12 ± 0.085 | 1.04 ± 0.11 | 1.22 ± 0.14 | 1.1 ± 0.06 | 1.14 ± 0.17 | 0.998 ± 0.071 | 0.907 ± 0.065 |
| SUM149.B1*.S BREAST | 1.1 ± 0.025 | 1.08 ± 0.05 | 1.05 ± 0.033 | – | 1.202 ± 0.0063 | 0.609 ± 0.04 | 1 ± 0.026 | 1.05 ± 0.023 | 1.08 ± 0.062 | 1.11 ± 0.038 | 1.07 ± 0.067 | 1.13 ± 0.073 | 1.07 ± 0.023 | 1.15 ± 0.085 | 1.051 ± 0.004 | 0.807 ± 0.024 |
| MG63 BONE | 0.996 ± 0.025 | 1.044 ± 0.01 | 1.015 ± 0.0067 | 1.13 ± 0.014 | 1.13 ± 0.031 | 1.12 ± 0.012 | 0.964 ± 0.016 | 1.01 ± 0.036 | 1.03 ± 0.026 | 1.09 ± 0.035 | 1.01 ± 0.032 | 1.1 ± 0.047 | 0.997 ± 0.031 | 1.02 ± 0.032 | 1 ± 0.018 | 1.1 ± 0.025 |
| SAOS2 BONE | 0.935 ± 0.028 | 1.072 ± 0.0081 | 1.04 ± 0.064 | 1.17 ± 0.017 | 1.237 ± 0.0023 | 1.07 ± 0.079 | 1.1 ± 0.026 | 1.12 ± 0.099 | 1.25 ± 0.047 | 1.2 ± 0.05 | 1.2 ± 0.13 | 1.23 ± 0.081 | 1.16 ± 0.063 | 1.18 ± 0.14 | 1.019 ± 0.0098 | 1.196 ± 0.01 |
| SYO1 SYNOVIAL | 0.9613 ± 0.0017 | 1.02 ± 0.045 | 0.981 ± 0.017 | 0.968 ± 0.025 | 0.912 ± 0.033 | 0.679 ± 0.022 | 0.971 ± 0.041 | 1.04 ± 0.064 | 0.965 ± 0.0099 | 1.01 ± 0.048 | 0.986 ± 0.059 | 1.01 ± 0.048 | 0.99733 ± 0.00067 | 1.03 ± 0.016 | 1.02 ± 0.023 | – |
| OSHN BONE | 1.06 ± 0.024 | 1.07 ± 0.018 | 1.05 ± 0.015 | 1.09 ± 0.037 | 1.06 ± 0.014 | 1.05 ± 0.013 | 1.05 ± 0.014 | 1.08 ± 0.018 | 1.06 ± 0.018 | 1.13 ± 0.035 | 1.07 ± 0.016 | 1.1 ± 0.028 | 1.081 ± 0.0068 | 1.1 ± 0.018 | 1.047 ± 0.0099 | 1.08 ± 0.025 |
